Data published in patent US20250026765A1, “SPIROHETEROCYCLE DERIVATIVE HAVING SEROTONIN RECEPTOR BINDING ACTIVITY” (Shionogi & Co., Ltd., priority 2021, published 2025).

target: human recombinant 5-HT2C receptor (Homo sapiens (Human), UniProt P28335); assay: 5-HT2C receptor binding inhibition test ([3H]-Mesulergine); settings: Jump-In HEK cell membrane, 37° C. 2 hours, read-out: h-5-HT2C Ki
Protocol: Test Example 2: 5-HT2C Receptor Binding Inhibition Test
(§1) (Each Experimental Condition)
Cell membrane: 0.5 μg of Jump-In HEK cell membrane (expressing human recombinant 5-HT2C receptor) per well
(§2) Assay buffer: Tris-HCl 50 mmol/L (pH 7.4) containing NaCl 120 mmol/L, MgCl2·6H2O 1 mmol/L, KCl 5 mmol/L, 0.1% BSA and CaCl2 2 mmol/L
Radioactive ligand: [^3H]-Mesulergine with a final concentration of around Kd value calculated by the following method
Non-specific ligand: Serotonin HCl with a final concentration of […]
(§3) The Kd value is calculated when the lot of cell membrane is changed. In advance, 0.5 μL of a 1 mmol/L compound for non-specific binding calculation dissolved in DMSO or DMSO is dispensed into a microplate, and the cell membrane is diluted with an Assay buffer. The radioactive ligand solution is serially diluted and the count is confirmed with a liquid scintillator. Assay buffer containing diluted cell membrane is dispensed into a microplate at 50 μL/well. Then, the radioactive ligand solution is dispensed into a microplate at 50 μL/well, and the plate is sealed. It is allowed to stand at 37° C. for 2 hours. During this period, 50 mmol/L Tris-HCl (pH 7.4) is dispensed into a GF/B UniFilter plate at 50 μL/well and allowed to stand at 4° C. for 1 hour or longer. After that, filtration is performed with Cell harvester (PerkinElmer). The radioactive ligand solution is dispensed into an empty well of the GF/B UniFilter plate at 10 μL/well. After the GF/B UniFilter plate is dried at room temperature, MicroScinti 20 is dispensed into the GF/B UniFilter plate at 50 μL/well to seal the plate. The GF/B UniFilter plate is allowed to stand overnight at room temperature. The radioactivity of [^3H]-Mesulergine bound to the 5-HT2C receptor is measured using Microbeta2 (PerkinElmer) at a measurement time of 1 min/well. The Saturation curve is drawn from the measured value, and the Kd value is calculated from the slope of the Scatchard Plot.
(§4) (Binding Test of the Compound According to the Present Invention)
In advance, 0.5 μL of the compound solution dissolved in DMSO is dispensed into a microplate, and the cell membrane and the hot ligand are diluted with Assay buffer, respectively. Then, the Assay buffer containing the diluted cell membrane is dispensed into a microplate at 50 μL/well. Then, the radioactive ligand solution is dispensed into a microplate at 50 μL/well, and the plate is sealed. Then, it is allowed to stand at 37° C. for 2 hours. During this period, 50 mmol/L Tris-HCl (pH 7.4) is dispensed into a GF/B UniFilter plate at 50 μL/well and allowed to stand at 4° C. for 1 hour or longer. After that, filtration is performed with Cell harvester (PerkinElmer). After the GF/B UniFilter plate is dried at room temperature, MicroScinti 20 is dispensed into the GF/B UniFilter plate at 50 μL/well, and the plate is sealed. The GF/B UniFilter plate is allowed to stand overnight at room temperature. The radioactivity of [^3H]-Mesulergine bound to the 5-HT2C receptor is measured using Microbeta2 (PerkinElmer) at a measurement time of 1 min/well. The non-specific binding is calculated from the radioactivity of […] in the presence of 500 μmol/L Serotonin HCl which is the unlabeled ligand, and the total binding is calculated from the radioactivity of [^3H]-Mesulergine in the absence of the compound according to the present invention (Vehicle). Finally, the Ki value is calculated from the dose-response curve.
(§5) (The binding activity of the compound according to the present invention is calculated from the following binding inhibition rate (%).)
(§6) [formula] • a; mean cpm of non-specific binding • b; average cpm of total binding • c; cpm in the presence of the test compound

human recombinant 5-HT2C receptor, sequence (P28335 33-458): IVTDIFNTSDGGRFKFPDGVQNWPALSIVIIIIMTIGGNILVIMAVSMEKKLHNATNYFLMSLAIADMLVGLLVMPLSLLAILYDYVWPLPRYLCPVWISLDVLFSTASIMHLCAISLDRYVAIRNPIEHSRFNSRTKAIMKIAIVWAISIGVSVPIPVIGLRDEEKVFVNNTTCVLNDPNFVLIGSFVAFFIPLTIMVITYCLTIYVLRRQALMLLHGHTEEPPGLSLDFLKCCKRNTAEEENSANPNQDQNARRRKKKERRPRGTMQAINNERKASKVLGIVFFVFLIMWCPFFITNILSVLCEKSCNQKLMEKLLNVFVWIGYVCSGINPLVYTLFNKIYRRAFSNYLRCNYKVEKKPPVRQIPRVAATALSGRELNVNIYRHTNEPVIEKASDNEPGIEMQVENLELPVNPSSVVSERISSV

Row | Ki | Compound
1 | 0.01 to 0.1 µM | CC(C)COc1ccc(CN(Cc2ccco2)C2=NC(=O)C3(CCN(C)CC3)N2)cc1 [Compound I-063]
2 | 0.1 to 0.5 µM | Cc1cc(CN(Cc2ccc(OCC(C)C)cc2)C2=NC(=O)C3(CCN(C)CC3)N2)nn1C [Compound I-058]
3 | 0.01 to 0.1 µM | CC(C)COc1ccc(CN(Cc2ccc(F)cc2)C2=NOC3(CCN(C)CC3)N2)cc1 [Compound I-055]
4 | < 0.01 µM | Cc1nc(CN(Cc2cccs2)C2=NOC3(CCN(C)CC3)N2)co1 [Compound I-069]
5 | 0.1 to 0.5 µM | CC(C)COc1ccc(CN(Cc2cnn(C)c2)C2=NOC3(CCN(C)CC3)N2)cc1 [Compound I-046]
6 | 0.01 to 0.1 µM | CC(C)COc1ccc(CN(Cc2ccc(F)cn2)C2=NC(=O)C3(CCN(C)CC3)N2)cc1 [Compound I-030]

The remaining lines, values behind:

Row | Compound | Ki
7 | CC(C)COc1ccc(CN(Cc2cnn(C)n2)C2=NOC3(CCN(C)CC3)N2)c(F)c1 [Compound I-106] | < 0.01 µM
8 | Cc1nc(CN(Cc2ccc(Cc3ccccc3)cc2)C2=NOC3(CCN(C)CC3)N2)co1 [Compound I-119] | < 0.01 µM
9 | CN1CCC2(CC1)NC(N(Cc1cnn(C)n1)Cc1ccc(OCC(F)(F)C(F)(F)F)cc1F)=NO2 [Compound I-103] | < 0.01 µM
10 | CC(C)COc1ccc(CN(Cc2coc(C(F)F)n2)C2=NOC3(CCN(C)CC3)N2)cc1 [Compound I-050] | < 0.01 µM
11 | CC(C)COc1ccc(CN(Cc2ccn(C)n2)C2=NOC3(CCN(C)CC3)N2)cc1 [Compound I-009] | < 0.01 µM

same assay, conditions: Jump-In HEK cell membrane, 37° C. 2 hours, read-out: human serotonin 5-HT2C receptor binding activity Ki

Row | Ki | Compound
12 | 0.019 µM | CC(C)COc1ccc(CN(Cc2ccn(C)n2)C2=NC(=O)C3(CCN(C)CC3)N2)cc1 [Compound I-033]
13 | 0.00308 µM | Cc1nc(CN(Cc2cc3ccccc3o2)C2=NOC3(CCN(C)CC3)N2)co1 [Compound I-099]
14 | 0.000787 µM | CCCc1ccc(CN(Cc2coc(C)n2)C2=NOC3(CCN(C)CC3)N2)cc1 [Compound I-087]

The remaining lines, values behind:

Row | Compound | Ki
15 | CC(C)COc1ccc(CC2=NOC3(CCN(C)CC3)N2Cc2ccc(F)cc2)cc1 [Compound I-001] | 0.0167 µM
16 | CCCOc1ccc(CC2=NOC3(CCN(C)CC34CC4)N2Cc2ccn(C)n2)cc1 (centres unmarked) [Compound I-027] | 0.00221 µM

target: human recombinant 5-HT2A receptor (Homo sapiens (Human), UniProt P28223); assay: 5-HT2A receptor binding inhibition test ([3H]-Ketanserin); settings: Jump-In HEK cell membrane, 25° C. 1.5 hours, read-out: h-5-HT2A Ki
Sequence (P28223 whole entry): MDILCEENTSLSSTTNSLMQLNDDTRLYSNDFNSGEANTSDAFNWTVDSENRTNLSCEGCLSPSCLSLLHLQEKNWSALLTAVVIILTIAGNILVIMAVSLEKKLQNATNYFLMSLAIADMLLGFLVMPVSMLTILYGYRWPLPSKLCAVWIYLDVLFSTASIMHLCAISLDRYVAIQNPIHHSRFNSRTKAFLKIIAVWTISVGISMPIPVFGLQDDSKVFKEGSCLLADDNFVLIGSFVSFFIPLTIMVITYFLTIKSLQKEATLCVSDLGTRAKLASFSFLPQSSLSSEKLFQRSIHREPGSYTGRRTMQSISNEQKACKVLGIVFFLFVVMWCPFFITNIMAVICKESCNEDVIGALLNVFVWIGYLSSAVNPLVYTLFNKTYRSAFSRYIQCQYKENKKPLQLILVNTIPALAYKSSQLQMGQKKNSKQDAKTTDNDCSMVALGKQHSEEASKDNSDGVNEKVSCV
Protocol: Test Example 1: 5-HT2A Receptor Binding Inhibition Test
as §1
Cell membrane: 15 μg of Jump-In HEK cell membrane (expressing human recombinant 5-HT2A receptor) per well
as §2
Radioactive ligand: [^3H]-Ketanserin with a final concentration of around Kd value calculated by the following method
Non-specific ligand: Serotonin HCl with a final concentration of 500 μmol/L
as §3, with “at room temperature (25° C.)” for “at 37° C.”, “for 1.5” for “for 2”, “of [^3H]-Ketanserin” for “of [^3H]-Mesulergine”, “the 5-HT2A” for “the 5-HT2C”
as §4
In advance, 0.5 μL of the compound solution dissolved in DMSO is dispensed into a microplate, and the cell membrane and the hot ligand are diluted with Assay buffer, respectively. Then, the Assay buffer containing the diluted cell membrane is dispensed into a microplate at 50 μL/well. Then, the radioactive ligand solution is dispensed into a microplate at 50 μL/well, and the plate is sealed. Then, it is allowed to stand at room temperature (25° C.) for 1.5 hours. During this period, 50 mmol/L Tris-HCl (pH 7.4) is dispensed into a GF/B UniFilter plate at 50 μL/well and allowed to stand at 4° C. for 1 hour or longer. After that, filtration is performed with Cell harvester (PerkinElmer). After the GF/B UniFilter plate is dried at room temperature, MicroScinti 20 is dispensed into the GF/B UniFilter plate at 50 μL/well to seal the plate. The GF/B UniFilter plate is allowed to stand overnight at room temperature. The radioactivity of [^3H]-Ketanserin bound to the 5-HT2A receptor is measured using Microbeta2 (PerkinElmer) at a measurement time of 1 min/well. The non-specific binding is calculated from the radioactivity of [^3H]-Ketanserin in the presence of 500 μmol/L Serotonin HCl which is the unlabeled ligand, and the total binding is calculated from the radioactivity of [^3H]-Ketanserin in the absence of the compound according to the present invention (Vehicle). Finally, the Ki value is calculated from the dose-response curve.
as §5, §6

Row | Ki | Compound
17 | < 0.01 µM | CC(C)COc1ccc(CN(Cc2ccco2)C2=NC(=O)C3(CCN(C)CC3)N2)cc1 [Compound I-063]
18 | 0.01 to 0.1 µM | Cc1cc(CN(Cc2ccc(OCC(C)C)cc2)C2=NC(=O)C3(CCN(C)CC3)N2)nn1C [Compound I-058]
19 | < 0.01 µM | CC(C)COc1ccc(CN(Cc2ccc(F)cc2)C2=NOC3(CCN(C)CC3)N2)cc1 [Compound I-055]
20 | 0.01 to 0.1 µM | Cc1nc(CN(Cc2cccs2)C2=NOC3(CCN(C)CC3)N2)co1 [Compound I-069]
21 | 0.01 to 0.1 µM | CC(C)COc1ccc(CN(Cc2cnn(C)c2)C2=NOC3(CCN(C)CC3)N2)cc1 [Compound I-046]
22 | < 0.01 µM | CC(C)COc1ccc(CN(Cc2ccc(F)cn2)C2=NC(=O)C3(CCN(C)CC3)N2)cc1 [Compound I-030]

The remaining lines, values behind:

Row | Compound | Ki
23 | CC(C)COc1ccc(CN(Cc2cnn(C)n2)C2=NOC3(CCN(C)CC3)N2)c(F)c1 [Compound I-106] | < 0.01 µM
24 | Cc1nc(CN(Cc2ccc(Cc3ccccc3)cc2)C2=NOC3(CCN(C)CC3)N2)co1 [Compound I-119] | < 0.01 µM
25 | CN1CCC2(CC1)NC(N(Cc1cnn(C)n1)Cc1ccc(OCC(F)(F)C(F)(F)F)cc1F)=NO2 [Compound I-103] | < 0.01 µM
26 | CC(C)COc1ccc(CN(Cc2coc(C(F)F)n2)C2=NOC3(CCN(C)CC3)N2)cc1 [Compound I-050] | < 0.01 µM
27 | CC(C)COc1ccc(CN(Cc2ccn(C)n2)C2=NOC3(CCN(C)CC3)N2)cc1 [Compound I-009] | < 0.01 µM

same assay, conditions: Jump-In HEK cell membrane, 25° C. 1.5 hours, read-out: human serotonin 5-HT2A receptor binding activity Ki

Row | Ki | Compound
28 | 0.0101 µM | CC(C)COc1ccc(CN(Cc2ccn(C)n2)C2=NC(=O)C3(CCN(C)CC3)N2)cc1 [Compound I-033]
29 | 0.00096 µM | Cc1nc(CN(Cc2cc3ccccc3o2)C2=NOC3(CCN(C)CC3)N2)co1 [Compound I-099]
30 | 0.00111 µM | CCCc1ccc(CN(Cc2coc(C)n2)C2=NOC3(CCN(C)CC3)N2)cc1 [Compound I-087]

Second part, the molecule before the results:

Row | Compound | Ki
31 | CC(C)COc1ccc(CC2=NOC3(CCN(C)CC3)N2Cc2ccc(F)cc2)cc1 [Compound I-001] | 0.00482 µM
32 | CCCOc1ccc(CC2=NOC3(CCN(C)CC34CC4)N2Cc2ccn(C)n2)cc1 (centres unmarked) [Compound I-027] | 0.00189 µM
